Assay [1] concerns Eight other ORs located near the IVA locus. As to the kind of experiment: Luciferase assay, other ORs near the IVA locus. In kind it is cell-based. The text has this: In experiments conducted during the course of the present invention, not only three class I ORs (S46, MOR23-1, MOR31-4) but also MOR203-1, a class II OR, responded to nonanoic acid. The present invention is not limited to a particular mechanism. Indeed, an understanding of the mechanism is not necessary to practice the present invention. […] Olfr62 is one of the closely related ORs located near or at the IVA locus, implicated in isovaleric acid sensation (see, e.g., Griff, I. C., and Reed, R. R. (1995) Cell 83, 407-414; Zhang, X., and Firestein, S. (2002) Nat Neurosci 5, 124-133; each herein incorporated by reference in their entireties). […] The present invention is not limited to a particular mechanism. Indeed, an understanding of the mechanism is not necessary to practice the present invention.
Dual-Glo system (Promega) for luciferase assay was used. CRE-Luciferase (Stratagene) was used to measure the receptor activities. Renilla luciferase driven by constitutively active SV40 promoter (pRL-SV40: Promega) was used as an internal control. […] Luminescence was measured using Wallac Victor 1420 (Perkin-Elmer). Normalized luciferase activity was calculated as [Luc (N)-Luc (0)]/RL (N), where Luc (N)=Luminescent count of a certain well, Luc (0)=Luminescent count without odorant for each OR, and RL (N)=Luminescent count of Renilla Luciferase of each well. […]

Another assay has as its system olfr62. In words: CRE-luciferase reporter gene assay, olfr62. In kind it is cell-based, mouse. As to conditions: Hana3A cells. The protocol:
Four ORs (S6/79, S18, S46 and S50) previously assayed using other techniques (see, e.g., Malnic, B., et al. (1999) Cell 96, 713-723; herein incorporated by reference in its entirety) were tested against an assay panel of aliphatic alcohols, aldehydes and acids and some other odorants. Additionally, five “orphan” class I ORs (MOR23-1, MOR31-4, MOR31-6, MOR32-5 and MOR32-11) whose cognate ligands were unknown were tested. At a suprathreshold concentration of 100 uM, all these ORs were odorant selective, responding to only a small subset of the odorants tested (see FIG. 11A). This specificity was retained at lower, more physiologically relevant concentrations. Many of these ORs responded to odorants present in micromolar concentrations. The cell-surface expression of these ORs by living-cell immunofluorescence were evaluated. Some ORs (S18, MOR31-4, MOR31-6 and MOR32-5) were strongly expressed while other ORs (S6, S50, MOR23-1, MOR32-11) were weakly expressed (see FIG. 12). The present invention is not limited to a particular mechanism. Indeed, an understanding of the mechanism is not necessary to practice the present invention. […] Finally, two additional orphan class II ORs, MOR203-1 and olfr62, were tested against a panel of 139 odorants. […] Olfr62 responded to coumarine and piperonal (see FIG. 11C). […] When parental 293T cells for these ORs were used in this luciferase assay, little or no response to the odorants was observed. The present invention is not limited to a particular mechanism. Indeed, an understanding of the mechanism is not necessary to practice the present invention.
Dual-Glo system (Promega) for luciferase assay was used. CRE-Luciferase (Stratagene) was used to measure the receptor activities. Renilla luciferase driven by constitutively active SV40 promoter (pRL-SV40: Promega) was used as an internal control. Cells were plated on poly-D-lysine coated 96 well plates (BIOCOAT, Beckton Dickinson). After 8 hours (for experiments shown in FIGS. 8B and 8C) or 12 hours (for experiments shown in FIG. 8D and FIG. 11) after transfection, the medium was replaced with CD293 chemically defined medium (Invitrogen) and the plates were incubated for one hour at 37 degrees C. The medium was replaced with 50 ul of odorant solutions dissolved in CD293 and incubated for 10 hours (for experiments shown in FIGS. 8B and 8C) or 4 hours (for experiments shown in FIG. 8D and FIG. 11) at 37 degrees C. The manufacture's protocol for measuring luciferase and Renilla luciferase activities was followed. Luminescence was measured using Wallac Victor 1420 (Perkin-Elmer). Normalized luciferase activity was calculated as [Luc (N)-Luc (0)]/RL (N), where Luc (N)=Luminescent count of a certain well, Luc (0)=Luminescent count without odorant for each OR, and RL (N)=Luminescent count of Renilla Luciferase of each well. For cAMP assays, cells were plated onto 24-well plate. […]. Prism software (Graphpad) was used for data analysis. […]

Turning to `CC(C)CC(=O)O` [isovaleric acid, Isovaleric acid], the “response of eight other ORs near the IVA locus to odorant” value in assay [1] is reported as “none of them responded”. In the assay on olfr62, the “response of olfr62 to odorant (luciferase)” value was “did not respond”.

The values are drawn from patent publication US7838288B2, “Modulators of odorant receptors” (Duke University, priority 2004, dated 2010).
